In general, pIC50 refers to the IC50 on a negative log10 scale, so that one unit is a factor of ten. Read a high pIC50 as a low IC50. For orientation: inhibition means the drop in the measured response relative to a control, in per cent. Higher therefore signals strong suppression.

Drawing on ChEMBL document CHEMBL2069273, “Modulation of cofilin phosphorylation by inhibition of the Lim family kinases” (Bioorg Med Chem Lett, 2012), this text covers IC50 and inhibition for 25 compounds.

pIC50: −log10 of the molar value.

The target in one assay is LIM domain kinase 1 (Homo sapiens, UniProt P53667). The assay can be described thus: Inhibition of LIMK1.
LIM domain kinase 1, sequence (P53667 whole entry, the tested form may be a part): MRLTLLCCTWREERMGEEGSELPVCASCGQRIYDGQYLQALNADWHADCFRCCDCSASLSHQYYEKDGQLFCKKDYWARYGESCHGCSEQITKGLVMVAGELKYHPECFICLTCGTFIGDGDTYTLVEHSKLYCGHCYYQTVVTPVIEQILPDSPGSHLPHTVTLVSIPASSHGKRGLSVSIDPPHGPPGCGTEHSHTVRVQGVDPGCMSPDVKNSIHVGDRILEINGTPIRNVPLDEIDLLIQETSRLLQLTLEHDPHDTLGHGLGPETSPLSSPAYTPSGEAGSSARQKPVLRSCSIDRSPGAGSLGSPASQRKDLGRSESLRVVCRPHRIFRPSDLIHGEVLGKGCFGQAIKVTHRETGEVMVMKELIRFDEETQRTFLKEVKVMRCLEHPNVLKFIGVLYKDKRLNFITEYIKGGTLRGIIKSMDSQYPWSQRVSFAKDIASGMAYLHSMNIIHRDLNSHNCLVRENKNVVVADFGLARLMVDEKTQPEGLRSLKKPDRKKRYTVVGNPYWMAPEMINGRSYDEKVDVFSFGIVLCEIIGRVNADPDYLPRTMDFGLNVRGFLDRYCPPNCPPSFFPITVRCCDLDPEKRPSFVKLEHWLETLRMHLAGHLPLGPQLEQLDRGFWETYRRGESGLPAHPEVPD
The target in another assay is LIM domain kinase 2 (Homo sapiens, UniProt P53671). Description: Inhibition of LIMK2.
LIM domain kinase 2, sequence (P53671 whole entry, the tested form may be a part): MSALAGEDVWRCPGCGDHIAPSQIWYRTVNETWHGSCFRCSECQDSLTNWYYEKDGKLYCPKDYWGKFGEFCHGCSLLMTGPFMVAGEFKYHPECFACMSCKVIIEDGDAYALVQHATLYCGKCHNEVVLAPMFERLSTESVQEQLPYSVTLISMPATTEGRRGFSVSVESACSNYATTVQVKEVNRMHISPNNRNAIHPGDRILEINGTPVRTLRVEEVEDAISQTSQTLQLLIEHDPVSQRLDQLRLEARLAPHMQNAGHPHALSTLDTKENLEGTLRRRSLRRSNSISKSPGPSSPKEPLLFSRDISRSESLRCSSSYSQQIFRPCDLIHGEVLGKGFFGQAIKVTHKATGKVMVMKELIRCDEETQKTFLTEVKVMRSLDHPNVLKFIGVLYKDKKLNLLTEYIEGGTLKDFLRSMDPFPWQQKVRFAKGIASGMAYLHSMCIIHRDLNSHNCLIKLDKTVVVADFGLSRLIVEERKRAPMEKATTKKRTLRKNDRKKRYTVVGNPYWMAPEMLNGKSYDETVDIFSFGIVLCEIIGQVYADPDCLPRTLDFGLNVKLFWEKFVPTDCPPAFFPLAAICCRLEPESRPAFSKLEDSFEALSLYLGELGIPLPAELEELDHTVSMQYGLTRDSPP
The target in assay [1] is Dual specificity testis-specific protein kinase 1 (Homo sapiens, UniProt Q15569). Description: Inhibition of TESK1.
Dual specificity testis-specific protein kinase 1, sequence (Q15569 whole entry): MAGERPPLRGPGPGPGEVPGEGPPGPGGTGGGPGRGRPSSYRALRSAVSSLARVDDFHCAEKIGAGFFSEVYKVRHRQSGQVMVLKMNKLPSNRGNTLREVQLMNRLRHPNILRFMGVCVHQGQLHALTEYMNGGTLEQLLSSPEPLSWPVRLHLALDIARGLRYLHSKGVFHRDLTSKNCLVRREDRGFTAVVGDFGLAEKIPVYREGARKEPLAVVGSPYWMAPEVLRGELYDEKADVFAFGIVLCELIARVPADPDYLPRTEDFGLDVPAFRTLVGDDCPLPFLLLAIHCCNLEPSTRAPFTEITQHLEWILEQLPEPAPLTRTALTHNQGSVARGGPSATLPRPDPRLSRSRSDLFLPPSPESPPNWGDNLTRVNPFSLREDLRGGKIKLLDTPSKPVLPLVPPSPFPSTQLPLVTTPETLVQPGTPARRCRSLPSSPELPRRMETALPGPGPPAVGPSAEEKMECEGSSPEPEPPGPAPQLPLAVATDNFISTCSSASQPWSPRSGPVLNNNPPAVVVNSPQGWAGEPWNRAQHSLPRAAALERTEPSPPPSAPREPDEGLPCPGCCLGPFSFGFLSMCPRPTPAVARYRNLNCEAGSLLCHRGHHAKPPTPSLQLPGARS
The target of assay [2] is T1, Dual specificity testis-specific protein kinase 2 (Homo sapiens, UniProt Q96S53). The assay can be described thus: Inhibition of TESK2.
Target sequence in this assay (Q96S53 whole entry): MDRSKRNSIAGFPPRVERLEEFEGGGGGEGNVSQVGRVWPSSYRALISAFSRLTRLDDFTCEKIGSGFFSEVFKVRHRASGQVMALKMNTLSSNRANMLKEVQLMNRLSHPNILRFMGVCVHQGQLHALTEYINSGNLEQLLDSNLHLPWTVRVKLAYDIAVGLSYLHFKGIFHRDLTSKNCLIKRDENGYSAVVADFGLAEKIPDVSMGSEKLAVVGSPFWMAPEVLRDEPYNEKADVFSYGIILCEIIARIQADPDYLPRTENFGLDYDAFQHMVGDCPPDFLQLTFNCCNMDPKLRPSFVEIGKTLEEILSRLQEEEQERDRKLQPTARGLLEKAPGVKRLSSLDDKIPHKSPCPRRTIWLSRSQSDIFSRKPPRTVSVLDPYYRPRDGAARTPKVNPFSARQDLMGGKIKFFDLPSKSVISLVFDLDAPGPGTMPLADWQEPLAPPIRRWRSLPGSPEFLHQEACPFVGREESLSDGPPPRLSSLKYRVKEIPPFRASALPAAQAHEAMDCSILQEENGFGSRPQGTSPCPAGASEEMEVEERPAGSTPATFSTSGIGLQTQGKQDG
Assay [3] addresses T1, Dual specificity testis-specific protein kinase 2. Description: Inhibition of TESK2 at 30 uM.
Target sequence in this assay (Q96S53 whole entry, looked up): as the sequence (Q96S53 whole entry) above
The target of assay [4] is Mitogen-activated protein kinase 14 (Homo sapiens, UniProt Q16539). The assay can be described thus: Inhibition of MAPK p38alpha.
Mitogen-activated protein kinase 14, sequence (Q16539 whole entry): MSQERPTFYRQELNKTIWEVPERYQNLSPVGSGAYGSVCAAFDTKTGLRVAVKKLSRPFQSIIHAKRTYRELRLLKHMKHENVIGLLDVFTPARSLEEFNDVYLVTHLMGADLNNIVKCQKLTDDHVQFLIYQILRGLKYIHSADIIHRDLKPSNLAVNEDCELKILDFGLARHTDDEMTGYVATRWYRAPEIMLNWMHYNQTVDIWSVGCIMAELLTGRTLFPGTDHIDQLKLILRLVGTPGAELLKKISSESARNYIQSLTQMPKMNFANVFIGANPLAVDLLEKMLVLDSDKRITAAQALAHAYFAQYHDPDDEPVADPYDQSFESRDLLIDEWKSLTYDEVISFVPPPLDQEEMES

Regarding `CNC(=O)Nc1ncc(-c2cc(-c3c(Cl)cc(OC)cc3Cl)nc(-c3cnccn3)n2)s1`, the pIC50 against LIM domain kinase 1 was 7.49; at LIM domain kinase 2, 7.92; in assay [1], below 4.52; in assay [2], below 4.52.

For the compound `CCC(CC)Oc1cc(C)c(-c2cc(-c3cnc(NC(=O)NC)s3)nc(-c3cnccn3)n2)c(C)c1`, the negative logarithm of the IC50 (pIC50) is 7.18 against LIM domain kinase 1, 6.76 on LIM domain kinase 2, 5.66 in assay [1] and 6.38 in assay [2].

Consider `CCCNc1ncc(-c2cc(-c3ccc(OC(CC)CC)cc3Cl)nc(-c3cnccn3)n2)s1`, for which the negative-log IC50 (pIC50) on LIM domain kinase 1 is 6.44; at LIM domain kinase 2 it was 4.30; in assay [1] it was below 4.52; in assay [2] it was below 4.52.

As to `CCCNc1ncc(-c2cc(-c3c(Cl)cc(OC(CC)CC)cc3Cl)nc(-c3cnccn3)n2)s1`, the negative-log IC50 (pIC50) was 6.79 against LIM domain kinase 1, 5.82 at LIM domain kinase 2, below 4.52 in assay [1] and below 4.52 in assay [2].

On to `CCCNc1ncc(-c2cc(-c3ccc(OC4CCCC4)cc3Cl)nc(-c3cnccn3)n2)s1`, for which the pIC50 against LIM domain kinase 1 is 6.68; on LIM domain kinase 2, 4.30; in assay [1], below 4.52; in assay [2], below 4.52.

On to `COC(=O)Nc1ncc(-c2cc(-c3c(C)cc(OC)cc3C)nc(-c3cnccn3)n2)s1`, for which the negative-log IC50 (pIC50) is 6.55 against LIM domain kinase 1, 6.69 on LIM domain kinase 2, 4.92 in assay [1] and 5.56 in assay [2].

Consider `CCCNc1ncc(-c2cc(-c3c(Cl)cc(OCCC)cc3Cl)nc(-c3cnccn3)n2)s1`, for which the pIC50 is 6.94 against LIM domain kinase 1, 6.85 against LIM domain kinase 2, below 4.52 in assay [1] and below 4.52 in assay [2].

Turning to `CCCNc1ncc(-c2cc(-c3cc(OC)ccc3Cl)nc(-c3cnccn3)n2)s1`, the negative-log IC50 (pIC50) on LIM domain kinase 1 is 4.90; against LIM domain kinase 2, 6.12; in assay [1], below 4.52; in assay [2], below 4.52.

Regarding `CCC(CC)Oc1cc(C)c(-c2cc(-c3cnc(NC(=O)C(C)C)s3)nc(-c3cnccn3)n2)c(C)c1`, the negative logarithm of the IC50 (pIC50) on LIM domain kinase 1 was 6.76; against LIM domain kinase 2, 6.61; in assay [1] it was below 4.90; in assay [2], below 4.90.

With `CCCNc1ncc(-c2cc(-c3c(Cl)cc(OC)cc3Cl)nc(-c3cnccn3)n2)s1`, the pIC50 was 7.42 against LIM domain kinase 1, 7.80 at LIM domain kinase 2 and below 4.52 in assay [1]. The compound also displayed an inhibition in assay [3] of 72%.

For the compound `CCC(CC)Oc1cc(C)c(-c2cc(-c3cnc(NC(C)=O)s3)nc(-c3cnccn3)n2)c(C)c1`, the negative logarithm of the IC50 (pIC50) was 7.19 against LIM domain kinase 1, 6.51 against LIM domain kinase 2, below 4.52 in assay [1] and 5.70 in assay [2].

For `CCCNc1ncc(-c2cc(-c3cc(OCCC)ccc3Cl)nc(-c3cnccn3)n2)s1`, the pIC50 against LIM domain kinase 1 was 5.98; at LIM domain kinase 2, 6.77; in assay [1], below 4.52; in assay [2], below 4.52.

Regarding `CCCNc1ncc(-c2cc(-c3ccc(OC)cc3Cl)nc(-c3cnccn3)n2)s1`, the pIC50 on LIM domain kinase 1 was 5.78; on LIM domain kinase 2, 5.91; in assay [1] it was below 4.52; in assay [2], below 4.52.

On to `COc1cc(C)c(-c2cc(-c3cnc(NC(C)=O)s3)nc(-c3cnccn3)n2)c(C)c1`, for which the pIC50 is 7.06 against LIM domain kinase 1, 7.23 against LIM domain kinase 2, 5.64 in assay [1] and 6.21 in assay [2].

Take `CCOc1ccc(-c2cc(-c3cnc(NC(C)C)s3)nc(-c3ccccn3)n2)c(Cl)c1`: the figures for the pIC50 (against LIM domain kinase 1; in assay [4]) were 6.31 and 5.40, respectively.

Take `CCOc1ccc(-c2cc(-c3cnc(NC(C)C)s3)nc(-c3cnccn3)n2)c(Cl)c1`: the negative logarithm of the IC50 (pIC50) was 6.43 against LIM domain kinase 1 and 5.70 in assay [4].

For the compound `CNC(=O)Nc1ncc(-c2cc(-c3c(C)cc(OC)cc3C)nc(-c3cnccn3)n2)s1`, the pIC50 against LIM domain kinase 1 was 7.64; at LIM domain kinase 2, 7.80; in assay [1], 5.95; in assay [2] it was 6.38.

Consider `CCCCCOc1ccc(-c2cc(-c3cnc(NCCC)s3)nc(-c3cnccn3)n2)c(Cl)c1`, for which the pIC50 at LIM domain kinase 1 was 6.35; at LIM domain kinase 2 it was 5.81; in assay [1], below 4.52; in assay [2] it was below 4.52.

Regarding `CCOc1ccc(-c2cc(-c3cnc(NC(C)C)s3)nc(-c3ccccc3F)n2)c(Cl)c1`, the figures for the negative logarithm of the IC50 (pIC50) (at LIM domain kinase 1; in assay [4]) were below 4.30 and 6.23, respectively.

As to `CCC(CC)Oc1cc(C)c(-c2cc(-c3cnc(NC(=O)OC)s3)nc(-c3cnccn3)n2)c(C)c1`, the negative logarithm of the IC50 (pIC50) was 6.64 against LIM domain kinase 1, 6.42 against LIM domain kinase 2, below 4.52 in assay [1] and below 4.52 in assay [2].

Take `COc1cc(Cl)c(-c2cc(-c3cnc(NC(C)=O)s3)nc(-c3cnccn3)n2)c(Cl)c1`: the negative logarithm of the IC50 (pIC50) at LIM domain kinase 1 was 7.52; against LIM domain kinase 2, 8.10; in assay [1], below 4.52; in assay [2], below 4.52.

With `CCCNc1ncc(-c2cc(-c3ccc(O)cc3Cl)nc(-c3cnccn3)n2)s1`, the pIC50 on LIM domain kinase 1 is 5.11; against LIM domain kinase 2 it was below 4.90; in assay [1], below 4.52; in assay [2] it was below 4.52.

As to `CCCNc1ncc(-c2cc(-c3cc(OCCC4CCCCC4)ccc3Cl)nc(-c3cnccn3)n2)s1`, the pIC50 on LIM domain kinase 1 is 6.84; against LIM domain kinase 2, 7.55; in assay [1], below 4.52; in assay [2], below 4.52.

Consider `CCCNc1ncc(-c2cc(-c3ccc(OC(CC)CC)cc3C)nc(-c3cnccn3)n2)s1`, for which the pIC50 against LIM domain kinase 1 is 6.67; against LIM domain kinase 2 it was 5.91; in assay [1] it was below 4.52; in assay [2], below 4.52.

In the case of `CCCNc1ncc(-c2cc(-c3c(Cl)cc(OC4CCCC4)cc3Cl)nc(-c3cnccn3)n2)s1`, the negative-log IC50 (pIC50) against LIM domain kinase 1 was 6.60; against LIM domain kinase 2, 6.09; in assay [1] it was below 4.52; in assay [2], below 4.52.
